Experimental data: ChEMBL document CHEMBL1125328, “Design and synthesis of a C7 mimetic for the predicted gamma-turn conformation found in several constrained RGD antagonists” (J Med Chem, 1992)
Bridge positions count the residues as written; N and C are the ends. Square brackets hold non-standard residues; d marks the D form. Peptide text beside a SMILES is read from it. NMeR = CN[C@@H](CCCNC(=N)N)C(=O)O

Molecular target: Integrin alpha-IIb/beta-3 (Homo sapiens, UniProt P05106+P08514)
Test: Inhibition of [3H]-107260 binding to purified GPIIb/IIIa of human platelets

Sequence of Integrin alpha-IIb/beta-3 (P05106 27-788 limits assumed): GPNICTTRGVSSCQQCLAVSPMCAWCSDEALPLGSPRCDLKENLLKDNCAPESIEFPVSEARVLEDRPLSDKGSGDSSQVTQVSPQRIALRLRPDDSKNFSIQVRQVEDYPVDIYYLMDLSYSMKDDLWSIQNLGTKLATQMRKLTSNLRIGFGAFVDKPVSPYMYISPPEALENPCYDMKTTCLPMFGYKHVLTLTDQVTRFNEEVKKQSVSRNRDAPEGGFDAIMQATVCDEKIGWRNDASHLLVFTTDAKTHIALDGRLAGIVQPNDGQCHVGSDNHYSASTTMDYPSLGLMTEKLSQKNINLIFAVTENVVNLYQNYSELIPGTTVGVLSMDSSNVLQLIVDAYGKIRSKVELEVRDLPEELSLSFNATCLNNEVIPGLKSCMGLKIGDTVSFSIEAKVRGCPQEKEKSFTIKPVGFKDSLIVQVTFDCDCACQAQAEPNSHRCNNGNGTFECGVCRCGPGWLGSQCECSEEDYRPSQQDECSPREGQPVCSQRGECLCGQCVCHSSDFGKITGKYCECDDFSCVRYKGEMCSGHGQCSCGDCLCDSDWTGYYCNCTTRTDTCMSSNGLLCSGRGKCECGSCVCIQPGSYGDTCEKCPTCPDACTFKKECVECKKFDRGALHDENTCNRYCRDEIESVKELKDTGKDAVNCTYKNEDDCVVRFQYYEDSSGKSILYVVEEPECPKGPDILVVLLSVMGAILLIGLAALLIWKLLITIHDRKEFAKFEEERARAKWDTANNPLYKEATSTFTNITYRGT
Sequence of Integrin alpha-IIb/beta-3 (P08514 32-887 limits assumed): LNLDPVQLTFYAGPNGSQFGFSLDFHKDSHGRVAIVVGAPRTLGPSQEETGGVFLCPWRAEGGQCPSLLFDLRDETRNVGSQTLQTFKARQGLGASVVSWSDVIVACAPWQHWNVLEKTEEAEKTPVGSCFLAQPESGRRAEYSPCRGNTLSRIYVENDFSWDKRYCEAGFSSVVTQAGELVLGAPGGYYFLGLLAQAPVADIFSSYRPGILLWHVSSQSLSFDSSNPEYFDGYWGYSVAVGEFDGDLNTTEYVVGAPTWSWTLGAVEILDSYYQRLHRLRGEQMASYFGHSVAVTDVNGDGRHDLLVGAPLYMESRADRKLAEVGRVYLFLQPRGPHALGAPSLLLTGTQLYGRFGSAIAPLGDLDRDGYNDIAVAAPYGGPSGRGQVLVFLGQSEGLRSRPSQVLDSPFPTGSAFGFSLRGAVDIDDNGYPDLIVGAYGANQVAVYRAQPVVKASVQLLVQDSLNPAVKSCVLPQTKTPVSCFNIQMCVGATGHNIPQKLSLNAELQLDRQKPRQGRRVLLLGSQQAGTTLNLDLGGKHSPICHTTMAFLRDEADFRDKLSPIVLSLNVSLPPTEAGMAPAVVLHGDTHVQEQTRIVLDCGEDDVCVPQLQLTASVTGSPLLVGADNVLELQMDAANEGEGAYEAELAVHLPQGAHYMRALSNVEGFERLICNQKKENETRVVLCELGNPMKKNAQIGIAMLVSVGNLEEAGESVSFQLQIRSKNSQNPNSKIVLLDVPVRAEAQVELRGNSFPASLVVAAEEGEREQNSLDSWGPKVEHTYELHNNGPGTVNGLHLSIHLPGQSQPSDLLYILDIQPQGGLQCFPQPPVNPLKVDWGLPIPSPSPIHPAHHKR
Sequence of Integrin alpha-IIb/beta-3 (P08514 891-1039 limits assumed): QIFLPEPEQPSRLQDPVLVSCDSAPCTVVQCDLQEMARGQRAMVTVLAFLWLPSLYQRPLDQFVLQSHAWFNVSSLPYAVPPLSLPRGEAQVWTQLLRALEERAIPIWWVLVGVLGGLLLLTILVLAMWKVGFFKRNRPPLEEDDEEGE

## CC(=O)N(C)C(CCCNC(=N)N)C(=O)NCC1=CC(CC(=O)O)C(=O)N(c2ccccc2)CC1 (configuration not stated)
  Ki: 271 nM

## CC(=O)N[C@H]1CSSC[C@@H](C(N)=O)NC(=O)[C@H](CC(=O)O)NC(=O)CNC(=O)[C@H](CCCN=C(N)N)N(C)C1=O (Ac-C[NMeR]GDC-NH2; disulfide 1-5)
  Ki: 175 nM
